The values that follow come from patent publication US6632921B1, “Seryl-lysyl-based peptide and peptidomimetic inhibitors of N-myristoyl transferase as anti-infective agents” (G. D Searle & Co, priority 1995, dated 2003).

What all share (assay): Antifungal susceptibility testing, pH 7.0/35° C., 1x10^3 cells/mL
For one assay, the system named is C.lusitaniae. In kind it is cell-based. Particulars: Clavispora lusitaniae. The procedure:
(§1) 2) Assay at pH 7.0/35° C. Incubation/(Candida Strains Only).
(§2) Based on several papers published during 1990-1993 regarding the standardization of testing procedures at multiple research centers, and the finding that, inoculum size, pH of media, and the temperature of incubation drastically affect the antifungal activity of several compounds, particularly in the Azole class of antifungals, an additional assay was configured at pH 7.0 for Candida albicans. [M. A. Pfaller et al, Antimicrobial Agents and Chemotherapy, 34, 1648-1654 (1990); F. C. Odds et al, Antimicrobial Agents and Chemotherapy, 36, 1727-1737 (1992); R. A. Cook et al, Antimicrobial Agents and Chemotherapy, 34, 1542-1545 (1990)]
(§3) The assay format is identical to the first one with the following modifications: C.albicans cells are diluted to 1×10^3 cells/ml into 2× buffered YNB (YNB buffered with 1.65 mM MOPS, pH 7.0, with the addition of 2% Dextrose and 0.08% casamino acids mixture, bio 101. inc,cat #10420-100). Incubation is carried out at 35° C. instead of 30° C., and cell growth is monitored at 590 nm at 24 and 48 hrs as described. All other aspects of the assay are identical. This assay was validated with amphotericin B, fluconazole, cilofungin (Ly-121019), Nikkomycin and terbinafine using the following Candida strains- (C.albicans, B311, C.parasilosis, C.tropicalis, C.lusitaniae, C.glabrata, and C. albicans 516)-Table II. All strains were from Dr. Kobayashi, Washington university.

The next assay deals with C.parasilosis. The class given is cell-based. The procedure: as §1, §2, §3
Another assay concerns C.tropicalis. In kind it is cell-based. Particulars: Candida tropicalis. The protocol:
as §1, §2, §3

For a further assay, the system named is C.glabrata. In kind it is cell-based. As to conditions: Nakaseomyces glabratus. The protocol: as §1, §2, §3
A further assay concerns C.albicans, B311. The class given is cell-based. As to conditions: Candida albicans. The protocol:
as §1, §2, §3

Another assay concerns C. albicans 516. In kind it is cell-based, Candida albicans. The protocol:
as §1, §2, §3

[1] abbreviates: pH 7.0/35° C./1x10^3 cells/mL, 48 hrs, read-out: EC50 - 48 HRS C.lusi.
The mark [2] stands for this setting: pH 7.0/35° C./1x10^3 cells/mL, 48 hrs, read-out: EC50 - 48 HRS C.para.
The mark [3] stands for this setting: pH 7.0/35° C./1x10^3 cells/mL, 48 hrs, read-out: EC50 - 48 HRS C.trop.
The mark [4] stands for this setting: pH 7.0/35° C./1x10^3 cells/mL, 48 hrs, read-out: EC50 - 48 HRS C.glab.
Setting [5] is: B311, pH 7.0/35° C./1x10^3 cells/mL, 48 hrs, read-out: EC50 - 48 HRS C.albicans.
Setting [6] is: Candida albicans, 516, pH 7.0/35° C./1x10^3 cells/mL, 48 hrs, read-out: EC50 - 48 HRS C.albicans (516).

Structures are written as SMILES. Like-named read-outs stand apart in the source and are kept apart here. Starred links: 1 amine or outer side, 2 acyl side, 3 side chain; linkers in the order of their positions; H or OH if unused. Positions of bridges follow the written chain, without caps; N, C: chain ends. Non-standard residues stand in square brackets, D forms with d. Residues, ends and D or L forms follow the SMILES beside them. *: point of attachment. Orn(4R-OH,5R-OH) = O=C([C@H](C[C@@H](O)[C@@H](O)N[*:3])N[*:1])[*:2]; hTyr(3S-OH,4S-OH) = N[C@H](C(=O)O)[C@H](O)[C@@H](O)c1ccc(O)cc1; Pro(3S-OH,4S-Me) = C[C@H]1CN[C@H](C(=O)O)[C@H]1O; Benzoyl(4-octyloxy) = CCCCCCCCOc1ccc(C(=O)*)cc1; Hyp = O=C(O)[C@@H]1C[C@@H](O)CN1

In general, EC50 refers to the concentration at which the effect is half-maximal. On to `CCCCCCCCOc1ccc(C(=O)N[C@H]2C[C@@H](O)[C@@H](O)NC(=O)[C@@H]3[C@@H](O)[C@@H](C)CN3C(=O)[C@H]([C@@H](C)O)NC(=O)[C@H]([C@H](O)[C@@H](O)c3ccc(O)cc3)NC(=O)[C@@H]3C[C@@H](O)CN3C(=O)[C@H]([C@@H](C)O)NC2=O)cc1` [Ly 12109, cilofungin] ({Benzoyl(4-octyloxy)}-[Orn(4R-OH,5R-OH)]T[Hyp][hTyr(3S-OH,4S-OH)]T[Pro(3S-OH,4S-Me)]; lactam 1-C), for which the EC50 with C.lusitaniae (setting [1]) is 6.6 µM; in the assay with C.parasilosis (setting [2]), 32 µM; with C.tropicalis (setting [3]) it was 0.6 µM; in the assay with C.glabrata (setting [4]) it was 6.1 µM; in the assay with C.albicans, B311 (setting [5]) it was 0.6 µM; with C. albicans 516 (setting [6]), 0.6 µM.

On to `C[C@@H]1[C@H](O)[C@@H](C)/C=C/C=C/C=C/C=C/C=C/C=C/C=C/[C@H](O[C@@H]2O[C@H](C)[C@@H](O)[C@H](N)[C@@H]2O)C[C@@H]2O[C@](O)(C[C@@H](O)C[C@@H](O)[C@H](O)CC[C@@H](O)C[C@@H](O)CC(=O)O[C@H]1C)C[C@H](O)[C@H]2C(=O)O` [Amphotericin, amphotericin B], for which the EC50 with C.lusitaniae (setting [1]) stood at 0.42 µg/mL; in the assay on C.parasilosis (setting [2]), 0.31 µg/mL; in the assay with C.tropicalis (setting [3]), 0.44 µg/mL; in the assay on C.glabrata (setting [4]) it was 0.47 µg/mL; in the assay with C.albicans, B311 (setting [5]), 0.11 µg/mL; in the assay on C. albicans 516 (setting [6]) it was 0.14 µg/mL.

As to `CN(C/C=C/C#CC(C)(C)C)Cc1cccc2ccccc12` [Terbinafine, terbinafine], the EC50 in the assay on C.lusitaniae (setting [1]) was 0.4 µM; in the assay on C.parasilosis (setting [2]), 0.2 µM; with C.tropicalis (setting [3]) it was greater than 100 µM; in the assay with C.glabrata (setting [4]) it was greater than 100 µM; in the assay with C.albicans, B311 (setting [5]), 4.4 µM; with C. albicans 516 (setting [6]) it was 3.2 µM.

Take `C[C@@H]([C@H](N)C(=O)N[C@H](C(=O)O)[C@H]1O[C@@H](n2ccc(=O)[nH]c2=O)[C@H](O)[C@@H]1O)[C@H](O)c1ccc(O)cn1` [Nikkomycin]: the EC50 is 28 µM in the assay with C.lusitaniae (pH 7, read-out: EC50 - 48 HRS C.lusi.); 13 µM in the assay with C.parasilosis (pH 7, read-out: EC50 - 48 HRS C.para); greater than 100 µM in the assay on C.tropicalis (pH 7, read-out: EC50 - 48 HRS C.trop.); greater than 100 µM in the assay on C.glabrata (pH 7, read-out: EC50 - 48 HRS C.glab.); 4.5 µM in the assay with C.albicans, B311 (B311, pH 7, read-out: EC50 - 48 HRS C.albicans); 11 µM in the assay with C. albicans 516 (Candida albicans, 516, pH 7, read-out: EC50 - 48 HRS C.albicans (516)).

`OC(Cn1cncn1)(Cn1cncn1)c1ccc(F)cc1F` [Fluconazole, fluconazole]: the EC50 in the assay with C.lusitaniae (setting [1]) turned out to be 0.6 µg/mL; in the assay with C.parasilosis (setting [2]), 0.91 µg/mL; with C.tropicalis (setting [3]) it was 2.6 µg/mL; with C.glabrata (setting [4]), 26 µg/mL; in the assay on C.albicans, B311 (setting [5]), 0.71 µg/mL; with C. albicans 516 (setting [6]) it was 0.65 µg/mL.
